According to patent publication US9980943B2, “Methods of treating muscular dystrophy” (BOARD OF REGENTS OF THE NEVADA SYSTEM OF HIGHER EDUCATION, …, priority 2013, dated 2018):

How the values were obtained:
Format in all cases: cell-based, mouse
[1] = test system: α7 integrin (LacZ reporter in α7βgal+/− myoblasts); test: Myoblast α7+/LacZ integrin FDG assay (Burkin assay in myoblasts, 96-well); conditions: α7+/LacZ myoblasts, 96-well
[2] = test system: α7 integrin (LacZ reporter in α7+/LacZ myotubes); test: Myotube α7 integrin FDG assay (Burkin assay in myotubes, 96-well); conditions: myotubes
[3] = test system: β-galactosidase in CMV-LacZ C2C12 myoblasts; test: CMV-LacZ secondary screen in C2C12 myoblasts (β-Gal stabilizing assay); conditions: CMV-LacZ C2C12 myoblasts
Method in brief: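 C2C12 myoblasts stably carrying a linearized CMV-driven LacZ construct, clone chosen by β-gal level in the myoblast FDG assay. Compounds tested in 96-well dose-response at 0.5, 1, 5, 10, 20 and 40 μM, N=2 replicates per point, to detect β-gal stabilization.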

[4] = test system: β-galactosidase in CMV-LacZ C2C12 myotubes; test: CMV-LacZ secondary screen in C2C12 myotubes (β-Gal stabilizing assay); conditions: C2C12 CMV-LacZ myotubes, fold relative to DMSO
Method in brief: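 A secondary screen identifies compounds that stabilize β-gal independently of the native promoter, using CMV-LacZ C2C12 cells. Curves span 0.5–40 μM at six levels, in duplicate.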

O=C(CCc1ccccc1)c1nnc(-c2ccccc2)o1 [MLS001004364-01]
Burkin Assay in Myoblasts, signal relative to DMSO ([1]; 0.5 uM): 1.0917 | Burkin Assay in Myoblasts, signal relative to DMSO ([1]; 1 uM): 1.105 | Burkin Assay in Myoblasts, signal relative to DMSO ([1]; 5 uM): 1.035 | Burkin Assay in Myoblasts, signal relative to DMSO ([1]; 10 uM): 0.9531 | Burkin Assay in Myoblasts, signal relative to DMSO ([1]; 20 uM): 0.9729 | Burkin Assay in Myoblasts, signal relative to DMSO ([1]; 40 uM): 0.9374 | Burkin Assay in Myotubes, α7 integrin LacZ reporter signal relative to DMSO ([2]; 0.5 uM): 1.093 | Burkin Assay in Myotubes, α7 integrin LacZ reporter signal relative to DMSO ([2]; 1 uM): 1.105 | Burkin Assay in Myotubes, α7 integrin LacZ reporter signal relative to DMSO ([2]; 5 uM): 0.9047 | Burkin Assay in Myotubes, α7 integrin LacZ reporter signal relative to DMSO ([2]; 10 uM): 0.8617 | Burkin Assay in Myotubes, α7 integrin LacZ reporter signal relative to DMSO ([2]; 20 uM): 0.8875 | Burkin Assay in Myotubes, α7 integrin LacZ reporter signal relative to DMSO ([2]; 40 uM): 1.055 | CMV-LACZ in Myoblasts (β-galactosidase activity relative to DMSO) ([3]; 0.5 uM): 0.9117 | CMV-LACZ in Myoblasts (β-galactosidase activity relative to DMSO) ([3]; 1 uM): 1.0643 | CMV-LACZ in Myoblasts (β-galactosidase activity relative to DMSO) ([3]; 5 uM): 1.0438 | CMV-LACZ in Myoblasts (β-galactosidase activity relative to DMSO) ([3]; 10 uM): 0.9011 | CMV-LACZ in Myoblasts (β-galactosidase activity relative to DMSO) ([3]; 20 uM): 1.0263 | CMV-LACZ in Myoblasts (β-galactosidase activity relative to DMSO) ([3]; 40 uM): 1.0441 | CMV-LACZ in Myotubes, signal relative to DMSO ([4]; 0.5 uM): 0.9210 | CMV-LACZ in Myotubes, signal relative to DMSO ([4]; 1 uM): 1.0095 | CMV-LACZ in Myotubes, signal relative to DMSO ([4]; 5 uM): 0.8978 | CMV-LACZ in Myotubes, signal relative to DMSO ([4]; 10 uM): 0.9480 | CMV-LACZ in Myotubes, signal relative to DMSO ([4]; 20 uM): 1.2824 | CMV-LACZ in Myotubes, signal relative to DMSO ([4]; 40 uM): 1.1824

Br.COc1ccc(C(=O)CN2CCCCC2)cc1 [MLS001004864-01]
Burkin Assay in Myoblasts, signal relative to DMSO ([1]; 0.5 uM): 1.1396 | Burkin Assay in Myoblasts, signal relative to DMSO ([1]; 1 uM): 1.193 | Burkin Assay in Myoblasts, signal relative to DMSO ([1]; 5 uM): 1.109 | Burkin Assay in Myoblasts, signal relative to DMSO ([1]; 10 uM): 1.023 | Burkin Assay in Myoblasts, signal relative to DMSO ([1]; 20 uM): 1.105 | Burkin Assay in Myoblasts, signal relative to DMSO ([1]; 40 uM): 0.8883 | Burkin Assay in Myotubes, α7 integrin LacZ reporter signal relative to DMSO ([2]; 0.5 uM): 0.949 | Burkin Assay in Myotubes, α7 integrin LacZ reporter signal relative to DMSO ([2]; 1 uM): 1.025 | Burkin Assay in Myotubes, α7 integrin LacZ reporter signal relative to DMSO ([2]; 5 uM): 0.9784 | Burkin Assay in Myotubes, α7 integrin LacZ reporter signal relative to DMSO ([2]; 10 uM): 0.9618 | Burkin Assay in Myotubes, α7 integrin LacZ reporter signal relative to DMSO ([2]; 20 uM): 0.6075 | Burkin Assay in Myotubes, α7 integrin LacZ reporter signal relative to DMSO ([2]; 40 uM): 0.376 | CMV-LACZ in Myoblasts (β-galactosidase activity relative to DMSO) ([3]; 0.5 uM): 1.2650 | CMV-LACZ in Myoblasts (β-galactosidase activity relative to DMSO) ([3]; 1 uM): 0.9288 | CMV-LACZ in Myoblasts (β-galactosidase activity relative to DMSO) ([3]; 5 uM): 1.2276 | CMV-LACZ in Myoblasts (β-galactosidase activity relative to DMSO) ([3]; 10 uM): 1.0417 | CMV-LACZ in Myoblasts (β-galactosidase activity relative to DMSO) ([3]; 20 uM): 1.2930 | CMV-LACZ in Myoblasts (β-galactosidase activity relative to DMSO) ([3]; 40 uM): 0.9933 | CMV-LACZ in Myotubes, signal relative to DMSO ([4]; 0.5 uM): 0.9657 | CMV-LACZ in Myotubes, signal relative to DMSO ([4]; 1 uM): 0.9610 | CMV-LACZ in Myotubes, signal relative to DMSO ([4]; 5 uM): 1.0697 | CMV-LACZ in Myotubes, signal relative to DMSO ([4]; 10 uM): 0.9501 | CMV-LACZ in Myotubes, signal relative to DMSO ([4]; 20 uM): 0.9653 | CMV-LACZ in Myotubes, signal relative to DMSO ([4]; 40 uM): 0.8884

COC(=O)c1ccc(N=Nc2ccccc2)cc1 [MLS001005712-01]
Burkin Assay in Myoblasts, signal relative to DMSO ([1]; 0.5 uM): 1.1047 | Burkin Assay in Myoblasts, signal relative to DMSO ([1]; 1 uM): 1.17 | Burkin Assay in Myoblasts, signal relative to DMSO ([1]; 5 uM): 0.926 | Burkin Assay in Myoblasts, signal relative to DMSO ([1]; 10 uM): 0.8783 | Burkin Assay in Myoblasts, signal relative to DMSO ([1]; 20 uM): 0.8763 | Burkin Assay in Myoblasts, signal relative to DMSO ([1]; 40 uM): 0.764 | Burkin Assay in Myotubes, α7 integrin LacZ reporter signal relative to DMSO ([2]; 0.5 uM): 0.8704 | Burkin Assay in Myotubes, α7 integrin LacZ reporter signal relative to DMSO ([2]; 1 uM): 1.173 | Burkin Assay in Myotubes, α7 integrin LacZ reporter signal relative to DMSO ([2]; 5 uM): 0.9472 | Burkin Assay in Myotubes, α7 integrin LacZ reporter signal relative to DMSO ([2]; 10 uM): 0.939 | Burkin Assay in Myotubes, α7 integrin LacZ reporter signal relative to DMSO ([2]; 20 uM): 0.7885 | Burkin Assay in Myotubes, α7 integrin LacZ reporter signal relative to DMSO ([2]; 40 uM): 0.7405 | CMV-LACZ in Myoblasts (β-galactosidase activity relative to DMSO) ([3]; 0.5 uM): 1.0188 | CMV-LACZ in Myoblasts (β-galactosidase activity relative to DMSO) ([3]; 1 uM): 1.2385 | CMV-LACZ in Myoblasts (β-galactosidase activity relative to DMSO) ([3]; 5 uM): 0.8934 | CMV-LACZ in Myoblasts (β-galactosidase activity relative to DMSO) ([3]; 10 uM): 0.9125 | CMV-LACZ in Myoblasts (β-galactosidase activity relative to DMSO) ([3]; 20 uM): 1.0241 | CMV-LACZ in Myoblasts (β-galactosidase activity relative to DMSO) ([3]; 40 uM): 1.0230 | CMV-LACZ in Myotubes, signal relative to DMSO ([4]; 0.5 uM): 1.0684 | CMV-LACZ in Myotubes, signal relative to DMSO ([4]; 1 uM): 1.0379 | CMV-LACZ in Myotubes, signal relative to DMSO ([4]; 5 uM): 0.9623 | CMV-LACZ in Myotubes, signal relative to DMSO ([4]; 10 uM): 0.8075 | CMV-LACZ in Myotubes, signal relative to DMSO ([4]; 20 uM): 1.1133 | CMV-LACZ in Myotubes, signal relative to DMSO ([4]; 40 uM): 1.3167
